From ChEMBL document CHEMBL6134791, “Stereochemical optimization of N,2-substituted cycloalkylamines as norepinephrine reuptake inhibitors” (RSC Med Chem, 2024)

These compounds were tested against Sodium-dependent noradrenaline transporter (Homo sapiens, UniProt P23975) (assay: Inhibition of NET (unknown origin) expressed in Jump In T-REx HEK293 cells assessed as decrease in norepinephrine-induced cellular response preincubated for 1 hr followed by norepinephrine stimulation measured for 30 mins by TRACT assay).
Format: cell-based

Chain of Sodium-dependent noradrenaline transporter (P23975 whole entry): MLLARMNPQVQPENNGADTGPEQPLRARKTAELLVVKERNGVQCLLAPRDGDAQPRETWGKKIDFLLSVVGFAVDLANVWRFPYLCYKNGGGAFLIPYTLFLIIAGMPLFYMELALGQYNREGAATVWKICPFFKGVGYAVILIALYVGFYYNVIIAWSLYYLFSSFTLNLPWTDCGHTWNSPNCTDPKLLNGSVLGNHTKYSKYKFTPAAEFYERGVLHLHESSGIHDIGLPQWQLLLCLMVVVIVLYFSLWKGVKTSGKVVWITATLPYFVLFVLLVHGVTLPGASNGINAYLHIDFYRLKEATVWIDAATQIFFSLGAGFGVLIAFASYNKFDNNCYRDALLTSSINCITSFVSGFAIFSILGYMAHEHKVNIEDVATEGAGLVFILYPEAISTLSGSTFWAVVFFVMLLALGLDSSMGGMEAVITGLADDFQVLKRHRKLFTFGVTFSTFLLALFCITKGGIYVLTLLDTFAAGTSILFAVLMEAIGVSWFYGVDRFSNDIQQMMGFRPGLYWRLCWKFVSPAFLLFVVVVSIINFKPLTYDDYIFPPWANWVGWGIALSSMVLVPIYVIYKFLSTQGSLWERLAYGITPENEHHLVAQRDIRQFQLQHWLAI

IC50 | SMILES
0.0794 µM | OCCNC1CCCC1c1ccc(Cl)c(Cl)c1 (configuration not stated)
0.158 µM | COC(=O)CCCNC1CCCC1c1ccc(Cl)c(Cl)c1 (configuration not stated)
0.501 µM | OCCCCNC1CCCCC1c1ccc(Cl)c(Cl)c1 (configuration not stated)
0.316 µM | CNCCCCNC1CCCC1c1ccc(Cl)c(Cl)c1 (configuration not stated)
0.1 µM | COCCCCNC1CCCC1c1ccc(Cl)c(Cl)c1 (configuration not stated)
0.631 µM | Clc1ccc(C2CCCC2NCc2ccccc2)cc1Cl (configuration not stated)

SMILES | IC50
CCCCNC1CCCC1c1ccc(Cl)c(Cl)c1 (configuration not stated) | 0.251 µM
